Measured values from ChEMBL document CHEMBL1201862, “PubChem BioAssay data set” (2004).
Each block holds one compound with its values, some of them ahead of it. Active and inactive are the calls of the source.

Tests used:
Albumin = Albumin (Bos taurus, UniProt P02769); test: Counterscreen for inhibitors of T-cell receptor (TCR)-CD3 interaction: Fluorescence-based biochemical high throughput dose response assay to identify inhibitors of T-cell receptor (TCR)-CD3 interaction using a TAMRA-labeled BSA probe.; type: functional
[1] = molecular target: Intestinal-type alkaline phosphatase (Homo sapiens, UniProt P09923); test: activation of human intestinal alkaline phosphatase – biochemical, dose response (AID 488873); type: functional
Sequence of Intestinal-type alkaline phosphatase (P09923 whole entry): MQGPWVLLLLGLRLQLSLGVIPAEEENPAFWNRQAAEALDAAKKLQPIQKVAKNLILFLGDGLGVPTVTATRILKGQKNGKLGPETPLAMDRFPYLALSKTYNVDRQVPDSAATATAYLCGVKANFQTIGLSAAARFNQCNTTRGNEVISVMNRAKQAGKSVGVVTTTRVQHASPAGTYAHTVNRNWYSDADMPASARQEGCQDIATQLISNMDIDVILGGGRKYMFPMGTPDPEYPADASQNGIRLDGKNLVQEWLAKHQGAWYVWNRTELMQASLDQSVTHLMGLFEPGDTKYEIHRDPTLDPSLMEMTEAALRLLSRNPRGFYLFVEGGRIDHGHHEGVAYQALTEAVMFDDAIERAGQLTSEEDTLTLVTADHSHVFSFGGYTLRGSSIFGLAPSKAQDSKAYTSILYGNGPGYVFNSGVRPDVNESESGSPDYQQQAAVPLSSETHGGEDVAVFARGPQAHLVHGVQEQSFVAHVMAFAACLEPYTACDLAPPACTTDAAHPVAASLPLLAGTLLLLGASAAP

[2] = molecular target: Serine/threonine-protein phosphatase PP1-alpha catalytic subunit (Homo sapiens, UniProt P62136); test: inhibition of protein phosphatase 1 activity – biochemical, fluorescence, dose response (AID 2403);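 also: phosphatase turnover of OMFP into fluorescent 3-O-methylfluorescein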
Sequence of Serine/threonine-protein phosphatase PP1-alpha catalytic subunit (P62136 whole entry): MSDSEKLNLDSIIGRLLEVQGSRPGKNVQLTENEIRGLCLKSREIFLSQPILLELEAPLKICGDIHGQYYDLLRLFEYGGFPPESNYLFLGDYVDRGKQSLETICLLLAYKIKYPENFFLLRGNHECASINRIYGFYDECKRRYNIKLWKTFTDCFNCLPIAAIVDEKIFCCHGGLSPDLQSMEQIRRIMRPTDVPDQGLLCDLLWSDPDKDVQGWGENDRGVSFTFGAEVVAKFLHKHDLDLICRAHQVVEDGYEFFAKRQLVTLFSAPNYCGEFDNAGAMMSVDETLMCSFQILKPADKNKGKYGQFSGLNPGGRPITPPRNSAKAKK

[3] = molecular target: Insulin-like growth factor 1 receptor (Homo sapiens, UniProt P08069); test: Navigating the Kinome. Panel member name: IGF1R; type: functional
[4] = molecular target: Glycogen synthase kinase-3 beta (Homo sapiens, UniProt P49841); type: functional;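 also: value comes from a broad kinome profiling panel, with GSK3B as the panel member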
Sequence of Glycogen synthase kinase-3 beta (P49841 whole entry): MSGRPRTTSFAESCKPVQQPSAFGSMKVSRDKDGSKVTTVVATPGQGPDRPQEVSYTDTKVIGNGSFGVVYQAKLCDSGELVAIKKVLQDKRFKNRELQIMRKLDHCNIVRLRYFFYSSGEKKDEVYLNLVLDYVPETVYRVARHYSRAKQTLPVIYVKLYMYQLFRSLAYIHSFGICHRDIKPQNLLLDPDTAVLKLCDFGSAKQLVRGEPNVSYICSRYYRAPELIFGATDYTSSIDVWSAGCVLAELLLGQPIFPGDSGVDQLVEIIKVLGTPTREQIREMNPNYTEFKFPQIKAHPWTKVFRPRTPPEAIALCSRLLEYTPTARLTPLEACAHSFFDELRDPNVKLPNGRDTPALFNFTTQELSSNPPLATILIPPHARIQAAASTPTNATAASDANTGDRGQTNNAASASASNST

Aurora kinase A = Aurora kinase A (Homo sapiens, UniProt O14965); type: functional;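 also: value from the Navigating the Kinome kinase panel profiling, panel entry STK6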
[5] = molecular target: ALK tyrosine kinase receptor (Homo sapiens, UniProt Q9UM73); type: functional;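 also: ALK tested as one member of a kinase panel screen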
[6] = molecular target: Casein kinase I isoform alpha (Homo sapiens, UniProt P48729); type: functional
Sequence of Casein kinase I isoform alpha (P48729 whole entry, canonical isoform): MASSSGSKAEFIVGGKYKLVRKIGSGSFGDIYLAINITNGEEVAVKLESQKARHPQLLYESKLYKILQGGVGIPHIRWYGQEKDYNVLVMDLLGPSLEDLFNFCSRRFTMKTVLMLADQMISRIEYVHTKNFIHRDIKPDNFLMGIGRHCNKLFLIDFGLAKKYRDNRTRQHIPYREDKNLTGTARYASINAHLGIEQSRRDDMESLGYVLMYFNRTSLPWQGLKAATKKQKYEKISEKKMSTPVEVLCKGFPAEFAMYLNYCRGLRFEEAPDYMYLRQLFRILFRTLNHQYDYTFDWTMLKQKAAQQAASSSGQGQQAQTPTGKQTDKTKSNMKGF

[7] = molecular target: Dual specificity mitogen-activated protein kinase kinase 1 (Homo sapiens, UniProt Q02750); test: Navigating the Kinome. Panel member name: MAP2K1; type: functional
[8] = molecular target: 5'-AMP-activated protein kinase catalytic subunit alpha-1 (Homo sapiens, UniProt Q13131); type: functional
Sequence of 5'-AMP-activated protein kinase catalytic subunit alpha-1 (Q13131 whole entry): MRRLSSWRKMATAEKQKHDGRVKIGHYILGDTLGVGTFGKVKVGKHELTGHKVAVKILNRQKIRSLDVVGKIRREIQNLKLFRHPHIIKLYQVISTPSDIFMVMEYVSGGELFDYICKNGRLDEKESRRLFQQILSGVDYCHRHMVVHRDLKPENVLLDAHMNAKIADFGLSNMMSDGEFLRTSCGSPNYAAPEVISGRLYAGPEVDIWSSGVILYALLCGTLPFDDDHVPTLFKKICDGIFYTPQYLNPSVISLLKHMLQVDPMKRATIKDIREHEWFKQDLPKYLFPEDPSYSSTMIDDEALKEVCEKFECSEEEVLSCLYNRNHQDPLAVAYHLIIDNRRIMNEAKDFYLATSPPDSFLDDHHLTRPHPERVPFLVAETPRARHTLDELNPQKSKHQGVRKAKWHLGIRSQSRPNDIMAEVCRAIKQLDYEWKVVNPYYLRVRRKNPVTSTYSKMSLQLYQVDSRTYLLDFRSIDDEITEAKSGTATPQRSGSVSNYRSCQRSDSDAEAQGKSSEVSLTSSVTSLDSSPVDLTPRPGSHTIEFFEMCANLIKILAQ

[9] = molecular target: Tyrosine-protein kinase JAK2 (Homo sapiens, UniProt O60674); type: functional;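 also: JAK2 tested as one member of a kinase panel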
[10] = molecular target: Macrophage-stimulating protein receptor (Homo sapiens, UniProt Q04912); test: Navigating the Kinome. Panel member name: MST1R; type: functional
Sequence of Macrophage-stimulating protein receptor (Q04912 25-304 limits assumed): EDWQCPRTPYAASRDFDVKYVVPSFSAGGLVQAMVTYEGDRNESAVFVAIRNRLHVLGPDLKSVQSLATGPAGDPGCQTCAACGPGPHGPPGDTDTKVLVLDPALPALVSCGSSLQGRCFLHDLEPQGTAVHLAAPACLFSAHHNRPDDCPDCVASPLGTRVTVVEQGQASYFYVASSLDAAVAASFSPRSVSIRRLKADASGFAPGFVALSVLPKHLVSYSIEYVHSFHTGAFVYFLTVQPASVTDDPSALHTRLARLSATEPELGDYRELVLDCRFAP
Sequence of Macrophage-stimulating protein receptor (Q04912 310-1400 limits assumed): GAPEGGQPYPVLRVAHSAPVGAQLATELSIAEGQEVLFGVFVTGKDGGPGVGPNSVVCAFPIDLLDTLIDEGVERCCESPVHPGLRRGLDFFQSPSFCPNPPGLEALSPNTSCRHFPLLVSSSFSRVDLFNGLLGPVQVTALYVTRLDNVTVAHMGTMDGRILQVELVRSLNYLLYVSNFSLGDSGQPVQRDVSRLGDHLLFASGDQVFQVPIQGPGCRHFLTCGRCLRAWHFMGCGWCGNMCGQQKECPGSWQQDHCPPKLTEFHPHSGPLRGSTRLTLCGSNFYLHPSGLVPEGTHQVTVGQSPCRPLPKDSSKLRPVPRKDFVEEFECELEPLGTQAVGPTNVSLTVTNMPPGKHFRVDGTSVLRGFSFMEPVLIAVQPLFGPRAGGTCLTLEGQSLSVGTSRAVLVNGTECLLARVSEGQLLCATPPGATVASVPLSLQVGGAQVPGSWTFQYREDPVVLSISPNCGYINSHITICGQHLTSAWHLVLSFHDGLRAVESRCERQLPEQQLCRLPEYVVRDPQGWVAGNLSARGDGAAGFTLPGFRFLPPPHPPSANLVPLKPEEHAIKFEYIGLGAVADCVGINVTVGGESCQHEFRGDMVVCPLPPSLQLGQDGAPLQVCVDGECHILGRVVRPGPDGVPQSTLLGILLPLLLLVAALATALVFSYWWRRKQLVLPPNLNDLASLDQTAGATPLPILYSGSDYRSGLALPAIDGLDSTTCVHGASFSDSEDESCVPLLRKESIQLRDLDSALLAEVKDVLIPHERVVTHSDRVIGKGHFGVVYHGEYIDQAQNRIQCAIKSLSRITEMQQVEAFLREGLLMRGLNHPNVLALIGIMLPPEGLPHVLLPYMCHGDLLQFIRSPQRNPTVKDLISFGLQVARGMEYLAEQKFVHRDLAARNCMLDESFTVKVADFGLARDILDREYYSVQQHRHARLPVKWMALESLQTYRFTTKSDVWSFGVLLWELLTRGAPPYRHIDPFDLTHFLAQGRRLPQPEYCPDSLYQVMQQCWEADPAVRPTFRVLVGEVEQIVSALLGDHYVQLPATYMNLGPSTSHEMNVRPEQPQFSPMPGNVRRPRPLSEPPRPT

[11] = molecular target: Mitogen-activated protein kinase 14 (Homo sapiens, UniProt Q16539); type: functional;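 also: part of a kinome-wide panel, MAPK14 entry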
Sequence of Mitogen-activated protein kinase 14 (Q16539 whole entry): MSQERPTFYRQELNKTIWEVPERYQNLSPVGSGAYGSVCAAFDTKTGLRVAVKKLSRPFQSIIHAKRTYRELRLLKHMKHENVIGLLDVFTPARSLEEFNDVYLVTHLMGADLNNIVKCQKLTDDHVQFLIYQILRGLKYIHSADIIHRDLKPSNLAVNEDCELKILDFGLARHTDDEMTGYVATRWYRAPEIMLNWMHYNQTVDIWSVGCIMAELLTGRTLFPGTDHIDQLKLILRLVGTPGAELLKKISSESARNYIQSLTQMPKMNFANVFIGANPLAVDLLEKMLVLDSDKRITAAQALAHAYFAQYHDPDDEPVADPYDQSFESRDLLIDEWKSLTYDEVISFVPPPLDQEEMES

[12] = molecular target: Tyrosine-protein kinase Fyn (Homo sapiens, UniProt P06241); type: functional
[13] = viability loss in HeLa cells – cytotoxicity control for MgcRacGAP inhibitor project, dose response (AID 624300); type: functional
[14] = molecular target: T1, Sentrin-specific protease 7 (Homo sapiens, UniProt Q9BQF6); type: functional;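 also: Luminescence-based dose-response confirmation of ultra-high-throughput screening hits, measuring inhibition of SENP7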
T1 sequence (Q9BQF6 whole entry): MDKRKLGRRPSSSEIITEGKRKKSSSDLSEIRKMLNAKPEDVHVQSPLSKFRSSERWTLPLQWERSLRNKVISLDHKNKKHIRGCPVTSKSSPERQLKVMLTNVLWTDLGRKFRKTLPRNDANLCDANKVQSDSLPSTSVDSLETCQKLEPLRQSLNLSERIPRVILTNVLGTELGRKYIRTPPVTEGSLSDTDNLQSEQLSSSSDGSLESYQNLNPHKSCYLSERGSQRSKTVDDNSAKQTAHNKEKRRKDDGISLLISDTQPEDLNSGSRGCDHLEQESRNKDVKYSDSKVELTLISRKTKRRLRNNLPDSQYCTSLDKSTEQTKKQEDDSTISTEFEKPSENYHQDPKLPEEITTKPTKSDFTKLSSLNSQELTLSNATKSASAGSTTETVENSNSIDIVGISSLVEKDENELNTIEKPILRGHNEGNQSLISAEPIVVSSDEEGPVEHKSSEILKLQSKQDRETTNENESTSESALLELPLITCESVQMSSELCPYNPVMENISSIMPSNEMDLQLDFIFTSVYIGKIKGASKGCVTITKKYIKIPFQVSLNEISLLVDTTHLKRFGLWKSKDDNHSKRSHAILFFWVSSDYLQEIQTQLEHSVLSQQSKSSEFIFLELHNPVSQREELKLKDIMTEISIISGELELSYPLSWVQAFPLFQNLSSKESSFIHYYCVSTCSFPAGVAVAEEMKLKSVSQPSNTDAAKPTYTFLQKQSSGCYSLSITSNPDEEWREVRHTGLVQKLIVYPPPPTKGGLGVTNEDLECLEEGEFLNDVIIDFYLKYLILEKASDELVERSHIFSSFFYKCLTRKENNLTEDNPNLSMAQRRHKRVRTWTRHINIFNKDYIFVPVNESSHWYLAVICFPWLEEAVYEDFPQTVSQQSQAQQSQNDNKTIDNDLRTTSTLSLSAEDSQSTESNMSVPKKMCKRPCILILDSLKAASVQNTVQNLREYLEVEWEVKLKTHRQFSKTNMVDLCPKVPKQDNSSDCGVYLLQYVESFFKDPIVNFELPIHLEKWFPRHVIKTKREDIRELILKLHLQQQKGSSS

[15] = molecular target: Voltage-gated N-type calcium channel alpha-1B subunit/Amyloid beta A4 precursor protein-binding family A member 1 (Homo sapiens, UniProt Q00975+Q02410); type: protein assay
SUMO-activating enzyme = SUMO-activating enzyme (Homo sapiens, UniProt Q9UBT2); test: blockers of UBC9-mediated SUMO conjugation – biochemical, AlphaScreen, SUMOylation inhibitor project, confirmation (AID 2018); type: functional
Sequence of SUMO-activating enzyme (Q9UBE0 whole entry): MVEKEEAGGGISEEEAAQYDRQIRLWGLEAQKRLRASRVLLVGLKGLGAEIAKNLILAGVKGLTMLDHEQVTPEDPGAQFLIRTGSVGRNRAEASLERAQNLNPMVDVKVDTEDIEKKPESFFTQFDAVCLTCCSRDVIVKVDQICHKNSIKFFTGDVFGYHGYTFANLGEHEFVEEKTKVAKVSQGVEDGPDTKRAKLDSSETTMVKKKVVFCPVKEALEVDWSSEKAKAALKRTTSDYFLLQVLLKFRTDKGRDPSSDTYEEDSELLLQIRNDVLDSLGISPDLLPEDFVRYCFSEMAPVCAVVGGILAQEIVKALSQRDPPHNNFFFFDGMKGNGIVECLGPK
Sequence of SUMO-activating enzyme (Q9UBT2 whole entry): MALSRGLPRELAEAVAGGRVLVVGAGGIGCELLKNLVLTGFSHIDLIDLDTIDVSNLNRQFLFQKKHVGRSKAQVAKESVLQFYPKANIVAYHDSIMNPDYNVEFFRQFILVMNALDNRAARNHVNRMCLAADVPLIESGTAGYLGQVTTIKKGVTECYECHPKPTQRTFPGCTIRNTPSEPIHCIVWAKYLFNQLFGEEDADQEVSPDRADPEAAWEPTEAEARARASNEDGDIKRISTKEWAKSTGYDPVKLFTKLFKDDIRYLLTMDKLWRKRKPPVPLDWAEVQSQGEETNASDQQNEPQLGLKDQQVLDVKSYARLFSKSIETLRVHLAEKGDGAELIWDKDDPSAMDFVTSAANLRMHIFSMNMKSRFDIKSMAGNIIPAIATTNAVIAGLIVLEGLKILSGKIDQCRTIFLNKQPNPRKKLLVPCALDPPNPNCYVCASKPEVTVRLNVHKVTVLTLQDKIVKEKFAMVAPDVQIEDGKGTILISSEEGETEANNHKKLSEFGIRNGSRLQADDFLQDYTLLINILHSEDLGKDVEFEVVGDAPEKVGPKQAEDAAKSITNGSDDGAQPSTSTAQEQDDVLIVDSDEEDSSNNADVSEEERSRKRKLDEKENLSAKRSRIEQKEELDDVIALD

Structure (SMILES): O=C1C=C(O)c2c(O)cc(O)c(O)c2C1=O
IC50 (Albumin): > 94.1 µM (inactive) | EC50 [1]: > 100 µM (inactive)

Structure (SMILES): CC1(C)C=C2C(=NN(c3ccccc3)C(N)=C2C#N)CO1
IC50 [2]: 55.8 µM (not active)

Ki [3]: > 2.51 µM (inactive) | Ki [4]: > 3.98 µM (inactive) | Ki (Aurora kinase A): > 1.58 µM (inactive) | Ki [5]: > 6.31 µM (inactive) | Ki [6]: > 3.98 µM (inactive) | Ki [7]: > 3.16 µM (inactive) | Ki [8]: 3.16 µM (active) | Ki [9]: > 2.51 µM (inactive) | Ki [10]: > 3.98 µM (inactive) | Ki [11]: > 3.98 µM (inactive) | Ki [12]: > 6.31 µM (inactive)
Structure (SMILES): Cc1ccc(-c2cc3nc(Br)cnc3[nH]2)cc1

Structure (SMILES): CC(=O)N(C1=C(Cl)C(=O)c2ccccc2C1=O)c1ccc(C(=O)O)cc1
CC50 [13]: 36.1 µM (active) | IC50 [14]: 8.9 µM (active) | IC50 [15]: 0.225 µM (active) | IC50 (SUMO-activating enzyme): 3.77 µM (active)
